We go through 12 compounds from paper PMC11564732, “Synthesis and preliminary cytotoxicity evaluation of water soluble pentacyclic triterpenoid phosphonates” (Scientific Reports, 2024).

Series [1] in a line: Water solubility determination by quantitative 1H-NMR in D2O. Type of series: physicochemical. The following applies: D2O adjusted with NaOD, aqueous buffer, thermodynamic from solid; qNMR in D2O, pH 8.0-8.5 (NaOD), room temperature, potassium hydrogen phthalate external standard. From the text:
The obtained PCT-derived sodium phosphonates were subjected to water solubility tests (Table 3). For this purpose, we used a quantitative ^1H-NMR approach in D2O, using potassium hydrogen phthalate as an external standard (for experimental details see Supporting Information). The presence of the basic forms of phosphonates[80] was ensured by the careful addition of NaOD, maintaining pH 8.0–8.5 during the quantification, which is 2–3 units higher than the pKa of phosphonic acid disalt. […] This is by at least two to three orders of magnitude higher than the reported solubilities of the parent natural triterpenic acids. […] Indeed, phosphonic acids are more acidic and easier ionizable than carboxylic acids. This ionic character helps to increase the aqueous solubility as exemplified by here described compounds.
Water solubility determination
To suspension of PCT phosphonate sample (10 mg) in D2O (500 µL) 0.8% solution of NaOD in D2O was added dropwise until pH = 8-8.5 (<100 µL). Obtained suspension was sonified in ultrasonic bath for 10 min. Undissolved particles were separated by centrifugation. Clear D2O solution was carefully transferred to NMR tube equipped with external standard vial.
Formula (1) was used to determine the solubility of PCT sample in the D2O.
[…]
SolPCT - solubility of PCT sample in D2O at room temperature (mg/mL)
IPCT - integral value of PCT signal of choice
Ist - integral value of external standard signal of choice
NPCT - number of integrated protons of PCT
Nst - number of integrated protons of external standard
V - volume of used D2O (mL) mst - mass of external standard (mg)
Mbet - molecular weight of PCT (g•mol−1)
Mst - molecular weight of external standard - potassium hydrogen phthalate (204.22 […]
Wst - assay of the external standard (99.5 %)

The subject of series [2] is mouse-derived preosteoblast cell line MC3T3-E1. The experiment in a line: Cytotoxicity evaluation, relative cell metabolic activity (CellTiter-Blue), MC3T3-E1. Type of series: cell-based. The following applies: 24 h, mean ± SD; for viability at 10 µM / viability at 25 µM / viability at 50 µM: Mus musculus, read-out: Relative metabolic activity of MC3T3-E1 cells; for viability at 10 µM: MC3T3-E1, 10 µM; for viability at 25 µM: MC3T3-E1, 25 µM; for viability at 50 µM: MC3T3-E1, 50 µM. The procedure: (§1) All target compounds were studied to determine their cytotoxic activity at various concentrations of each compound (10–50 µM) against human-derived osteosarcoma cell line MG-63 (ATCC, CRL-1427) and mouse-derived preosteoblast cell line MC3T3-E1 (ATCC, CRL-2593) (Table 4 and Figures S1-S4 in the Supporting Information). For the comparison, naturally occurring betulinic, oleanolic (1b) and ursolic (1c) acids as well as their 3-oxo analogs 2a-c and doxorubicin, were also subjected to the cytotoxicity tests.
(§2) Cytotoxicity of betulinic acid, ursolic acid and oleanolic acid derivatives was evaluated using human-derived osteosarcoma cell line MG63 (ATCC, CRL-1427) and mouse-derived preosteoblast cell line MC3T3-E1 (ATCC CRL-2593). Before conducting the experiments, both cell lines were continuously cultured according to the ATCC product sheet instructions. Briefly, both cell lines were expanded in α-MEM medium supplemented with 10% FBS and 1% pen-strep and maintained at 37 °C in a humidified atmosphere with 5% CO2.
(§3) Each cell line was plated at a concentration of 1 × 10^4 cells/well in 96-well plate. The plates were incubated for 24 h to allow cell attachment and growth. Bioactive substances were solubilized in methanol prior further dilution in cell culture media. Following the cell incubation period, the culture media was removed and the dilutions of active substance (10, 25 and 50 µM) in cell culture media were added. The culture medium only and its dilutions with methanol solution respective to the bioactive substance concentrations were used as the controls. […] Cells were treated with bioactive substance solutions for 24 h. After 24 h incubation, relative cell metabolic activity was assessed using CellTiter-Blue® (CTB) analysis (Promega, JAV). […] was measured at 590 nm using microplate reader (Infinite® 200 PRO, Tecan, USA). The relative cell metabolic activity was calculated for each bioactive substance concentration as well as for the controls. […] Statistically significant differences between sample groups are assessed using a one-way ANOVA test and then corrected using the Šídák multiple comparison test. Statistically significant differences were considered to be those with a P-values less than 0.05 (p < 0.05).
(§4) Cytotoxicity of betulinic acid, ursolic acid and oleanolic acid derivatives was evaluated using human-derived osteosarcoma cell line MG63 (ATCC, CRL-1427) and mouse-derived preosteoblast cell line MC3T3-E1 (ATCC CRL-2593). Before conducting the experiments, both cell lines were continuously cultured according to the ATCC product sheet instructions. Briefly, both cell lines were expanded in α-MEM medium supplemented with 10 % FBS and 1 % pen-strep and maintained at 37 °C in a humidified atmosphere with 5 % CO2.
(§5) […]
(In general: Resazurin is reduced to fluorescent resorufin, in cell work by metabolically active cells.)

The subject of series [3] is human-derived osteosarcoma cell line MG-63. The experiment in a line: Cytotoxicity evaluation, relative cell metabolic activity (CellTiter-Blue), MG-63. Type of series: cell-based. The settings on record: 24 h, mean ± SD; for viability at 10 µM / viability at 25 µM / viability at 50 µM: Homo sapiens, read-out: Relative metabolic activity of MG-63 cells; for viability at 10 µM: MG-63, 10 µM; for viability at 25 µM: MG-63, 25 µM; for viability at 50 µM: MG-63, 50 µM. The procedure: as §1, §2, §3, §4, §5

For series [4] the following is noted: cited from earlier work.

In brackets after ≈: the same amount, converted by molar mass.

The term solubility denotes the concentration that dissolves in the medium under given conditions. Read a high solubility as a readily soluble substance. For `CC1(C)CCC2(C(=O)OCP(=O)([O-])[O-])CCC3(C)C(=CCC4C5(C)CCC(=O)C(C)(C)C5CCC43C)C2C1.[Na+].[Na+]` (centres unmarked) [7b], the solubility at 10 min in series [1] was found to be 8000 µg/mL. Also, in series [2], the viability at 10 µM is 131 ± 8%, the viability at 25 µM amounted to 150 ± 4% and the viability at 50 µM worked out at 104 ± 5%. For the same compound, in series [3], the viability at 10 µM turned out to be 113 ± 8%, the viability at 25 µM was found to be 132 ± 5% and the viability at 50 µM was 119 ± 5%.

As to `CC1CCC2(C(=O)OCP(=O)([O-])[O-])CCC3(C)C(=CCC4C5(C)CCC(=O)C(C)(C)C5CCC43C)C2C1C.[Na+].[Na+]` (centres unmarked) [7c], the solubility at 10 min in series [1] was 26000 µg/mL. For the same compound, in series [2], the viability at 10 µM came out at 91 ± 6%, the viability at 25 µM was 90 ± 3% and the viability at 50 µM came to 94 ± 5%. Also, in series [3], the viability at 10 µM was 96 ± 4%, the viability at 25 µM amounted to 98 ± 4% and the viability at 50 µM was 112 ± 3%.

`C=C(C)C1CCC2(C(=O)OCP(=O)([O-])[O-])CCC3(C)C(CCC4C5(C)CCC(O)C(C)(C)C5CCC43C)C12.[Na+].[Na+]` (centres unmarked) [8a] showed a solubility at 10 min in series [1] of 3000 µg/mL. In series [2], the viability at 10 µM worked out at 108 ± 5%, the viability at 25 µM came to 119 ± 4% and the viability at 50 µM came to 101 ± 5%. Further, in series [3], the viability at 10 µM was found to be 158 ± 5%, the viability at 25 µM was found to be 124 ± 25% and the viability at 50 µM was 159 ± 17%.

For the compound `CC1(C)CCC2(C(=O)OCP(=O)([O-])[O-])CCC3(C)C(=CCC4C5(C)CCC(O)C(C)(C)C5CCC43C)C2C1.[Na+].[Na+]` (centres unmarked) [8b], the solubility at 10 min in series [1] is 7000 µg/mL.

Broadly, the Aqueous solubility is the dissolved amount per volume that the medium holds. For `C=C(C)[C@@H]1CC[C@]2(C(=O)O)CC[C@]3(C)[C@H](CC[C@@H]4[C@@]5(C)CC[C@H](O)C(C)(C)[C@@H]5CC[C@]43C)[C@@H]12` [Betulinic acid], the “Solubility in distilled water” value in series [4] (distilled water) is 0.021 µg/mL (≈ 0.046 µM). Besides, in series [4], the “Aqueous solubility at neutral pH” value is < 0.1 µg/mL and the “Aqueous solubility at pH 11.8” value was 42.1 µg/mL. In addition, in series [4] (pH 11.4, sodium phosphate solution), the “Solubility in sodium phosphate solution” value is 40.1 µg/mL (≈ 87.8 µM). Further, in series [2], the viability at 10 µM worked out at 76 ± 7%, the viability at 25 µM turned out to be 56 ± 4% and the viability at 50 µM came to 97 ± 7%. Moreover, in series [3], the viability at 10 µM is 74 ± 16%, the viability at 25 µM worked out at 91 ± 14% and the viability at 50 µM stood at 112 ± 8%.

As to `C=C(C)[C@@H]1CC[C@]2(C(=O)O)CC[C@]3(C)[C@H](CC[C@@H]4[C@@]5(C)CCC(=O)C(C)(C)[C@@H]5CC[C@]43C)[C@@H]12` [Betulonic acid (2a), Betulonic acid], in series [2], the viability at 10 µM was 139 ± 6%, the viability at 25 µM came out at 170 ± 5% and the viability at 50 µM came out at 122 ± 1%. For the same compound, in series [3], the viability at 10 µM stood at 114 ± 2%, the viability at 25 µM was 96 ± 4% and the viability at 50 µM came out at 88 ± 8%.

On to `COc1cccc2c1C(=O)c1c(O)c3c(c(O)c1C2=O)C[C@@](O)(C(=O)CO)C[C@@H]3O[C@H]1C[C@H](N)[C@H](O)[C@H](C)O1` [Doxorubicin], for which, in series [2], the viability at 10 µM amounted to 72 ± 7%, the viability at 25 µM came to 60 ± 3% and the viability at 50 µM is 53 ± 3%. For the same compound, in series [3], the viability at 10 µM was 41 ± 2%, the viability at 25 µM was 19 ± 1% and the viability at 50 µM came to 16 ± 2%.

Take `CC1(C)CC[C@]2(C(=O)O)CC[C@]3(C)C(=CC[C@@H]4[C@@]5(C)CC[C@H](O)C(C)(C)[C@@H]5CC[C@]43C)[C@@H]2C1` [Oleanolic acid (1b), Oleanolic acid]: in series [4], the “Aqueous solubility at neutral pH” value is < 0.1 µg/mL and the “Aqueous solubility at pH 11.8” value is recorded as 99.5 µg/mL. In series [2], the viability at 10 µM turned out to be 104 ± 7%, the viability at 25 µM was found to be 97 ± 8% and the viability at 50 µM turned out to be 96 ± 5%. In series [3], the viability at 10 µM is 77 ± 14%, the viability at 25 µM was 158 ± 13% and the viability at 50 µM turned out to be 129 ± 11%.

On to `CC1(C)CC[C@]2(C(=O)O)CC[C@]3(C)C(=CC[C@@H]4[C@@]5(C)CCC(=O)C(C)(C)[C@@H]5CC[C@]43C)[C@@H]2C1` [Oleanonic acid (2b), Oleanonic acid], for which, in series [2], the viability at 10 µM amounted to 110 ± 1%, the viability at 25 µM was found to be 99 ± 5% and the viability at 50 µM turned out to be 49 ± 12%. Besides, in series [3], the viability at 10 µM amounted to 151 ± 8%, the viability at 25 µM is 160 ± 3% and the viability at 50 µM came to 103 ± 18%.

`C[C@H]1[C@H](C)CC[C@]2(C(=O)O)CC[C@]3(C)C(=CC[C@@H]4[C@@]5(C)CC[C@H](O)C(C)(C)[C@@H]5CC[C@]43C)[C@H]12` [Ursolic acid (1c), Ursolic acid]: the “Aqueous solubility (in words)” value in series [4] (compared with oleanolic and betulinic acids) is reported as “similarly low aqueous solubility”. In addition, in series [2], the viability at 10 µM was determined as 106 ± 5%, the viability at 25 µM was 83 ± 5% and the viability at 50 µM was found to be 99 ± 8%. For the same compound, in series [3], the viability at 10 µM came to 66 ± 3%, the viability at 25 µM is 64 ± 3% and the viability at 50 µM came out at 28 ± 4%.

As for `C[C@H]1[C@H](C)CC[C@]2(C(=O)O)CC[C@]3(C)C(=CC[C@@H]4[C@@]5(C)CCC(=O)C(C)(C)[C@@H]5CC[C@]43C)[C@H]12` [Ursonic acid (2c), Ursonic acid], in series [2], the viability at 10 µM is 74 ± 2%, the viability at 25 µM was 107 ± 7% and the viability at 50 µM came out at 72 ± 9%. In addition, in series [3], the viability at 10 µM is 76 ± 8%, the viability at 25 µM is 67 ± 4% and the viability at 50 µM turned out to be 67 ± 4%.

For “Sodium (3-oxo-(17R)-17-28-norlup-20(29)-en)-2-oxoethyl-phosphonate [7a]”, the “Relative metabolic activity of MC3T3-E1 cells” value in series [2] (10 µM) is 1.41 ± 0.01; in series [2] (25 µM), 1.27 ± 0.05; in series [2] (50 µM), 1.13 ± 0.03. Besides, the “Relative metabolic activity of MG-63 cells” value in series [3] (10 µM) is reported as 1.10 ± 0.04; in series [3] (25 µM), 1.30 ± 0.06; in series [3] (50 µM) it was 1.09 ± 0.04.
